Data taken from ChEMBL document CHEMBL1201862, “PubChem BioAssay data set” (2004).
The source made the active and inactive calls.

Key:
[1] = biological target: T1, Short transient receptor potential channel 4 (Mus musculus, UniProt Q9QUQ5); test: calcium entry via TRPC4 opening agents – cell-based, HEK293 TRPC4/mu-opioid, Fluo-4 calcium, dose response (AID 434937); type: functional
T1 sequence (Q9QUQ5 whole entry): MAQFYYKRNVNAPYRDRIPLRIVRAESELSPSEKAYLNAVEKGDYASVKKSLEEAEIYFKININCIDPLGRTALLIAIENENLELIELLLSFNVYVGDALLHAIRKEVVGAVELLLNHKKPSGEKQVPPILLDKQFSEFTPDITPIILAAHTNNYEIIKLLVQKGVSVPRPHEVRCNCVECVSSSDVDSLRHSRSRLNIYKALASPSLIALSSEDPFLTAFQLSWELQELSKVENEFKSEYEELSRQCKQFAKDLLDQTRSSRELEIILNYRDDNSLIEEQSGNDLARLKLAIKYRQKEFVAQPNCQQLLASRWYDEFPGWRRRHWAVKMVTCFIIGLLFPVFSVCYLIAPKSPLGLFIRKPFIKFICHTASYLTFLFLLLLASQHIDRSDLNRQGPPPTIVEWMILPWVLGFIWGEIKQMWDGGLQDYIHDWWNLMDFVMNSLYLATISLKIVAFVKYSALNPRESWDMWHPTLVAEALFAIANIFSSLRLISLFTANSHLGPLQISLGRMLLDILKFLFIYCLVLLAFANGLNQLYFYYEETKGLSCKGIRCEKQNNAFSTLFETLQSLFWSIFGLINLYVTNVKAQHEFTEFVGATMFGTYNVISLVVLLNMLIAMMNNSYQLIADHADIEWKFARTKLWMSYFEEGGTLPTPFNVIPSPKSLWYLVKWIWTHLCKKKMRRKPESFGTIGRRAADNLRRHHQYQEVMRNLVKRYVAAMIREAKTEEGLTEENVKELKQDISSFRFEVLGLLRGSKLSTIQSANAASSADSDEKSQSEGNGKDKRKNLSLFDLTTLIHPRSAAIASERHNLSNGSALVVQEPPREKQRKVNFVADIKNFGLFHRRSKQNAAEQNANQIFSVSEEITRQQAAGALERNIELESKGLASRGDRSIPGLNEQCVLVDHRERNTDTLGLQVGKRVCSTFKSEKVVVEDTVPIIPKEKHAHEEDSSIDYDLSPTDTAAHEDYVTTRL

Cytochrome P450 2D6 = Cytochrome P450 2D6 (Homo sapiens, UniProt P10635);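 note: CYP2D6 member of a cytochrome P450 panel assay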
Chain of Cytochrome P450 2D6 (P10635 whole entry): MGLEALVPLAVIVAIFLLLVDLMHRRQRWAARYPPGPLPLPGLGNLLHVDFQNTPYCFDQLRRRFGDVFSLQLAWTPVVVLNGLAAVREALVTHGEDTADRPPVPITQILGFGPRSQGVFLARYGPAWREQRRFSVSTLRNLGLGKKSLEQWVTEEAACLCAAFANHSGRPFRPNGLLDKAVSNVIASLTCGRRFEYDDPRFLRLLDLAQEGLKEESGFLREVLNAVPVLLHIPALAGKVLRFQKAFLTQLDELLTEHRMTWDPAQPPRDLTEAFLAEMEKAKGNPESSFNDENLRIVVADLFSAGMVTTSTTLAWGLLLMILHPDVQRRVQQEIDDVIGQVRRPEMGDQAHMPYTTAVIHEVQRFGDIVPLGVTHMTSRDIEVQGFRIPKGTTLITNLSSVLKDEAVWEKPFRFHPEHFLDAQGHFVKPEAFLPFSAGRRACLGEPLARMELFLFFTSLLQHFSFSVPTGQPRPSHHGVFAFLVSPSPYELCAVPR

Cytochrome P450 1A2 = biological target: T2, Cytochrome P450 1A2 (Homo sapiens, UniProt P05177);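 note: PubChem cytochrome P450 panel assay, CYP1A2 panel member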
T2 sequence (P05177 whole entry): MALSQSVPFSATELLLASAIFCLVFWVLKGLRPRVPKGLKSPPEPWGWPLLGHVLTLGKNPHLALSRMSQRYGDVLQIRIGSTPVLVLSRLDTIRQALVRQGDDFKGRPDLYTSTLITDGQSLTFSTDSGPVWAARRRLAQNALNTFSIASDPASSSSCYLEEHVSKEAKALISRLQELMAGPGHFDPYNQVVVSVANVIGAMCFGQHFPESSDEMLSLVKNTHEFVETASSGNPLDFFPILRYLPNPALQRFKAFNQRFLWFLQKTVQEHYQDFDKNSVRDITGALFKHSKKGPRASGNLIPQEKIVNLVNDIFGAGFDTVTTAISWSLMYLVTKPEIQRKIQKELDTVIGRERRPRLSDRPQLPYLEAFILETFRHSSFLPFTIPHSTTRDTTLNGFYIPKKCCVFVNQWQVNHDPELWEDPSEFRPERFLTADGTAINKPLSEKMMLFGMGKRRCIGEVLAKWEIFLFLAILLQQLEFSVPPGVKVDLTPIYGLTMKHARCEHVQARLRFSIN

Cytochrome P450 2C19 = Cytochrome P450 2C19 (Homo sapiens, UniProt P33261); test: Cytochrome panel assay with activity outcomes. Panel member name: p450-cyp2c19 Compounds with AC50 equal or less than 10 uM are considered active; type: functional
Chain of Cytochrome P450 2C19 (P33261 whole entry): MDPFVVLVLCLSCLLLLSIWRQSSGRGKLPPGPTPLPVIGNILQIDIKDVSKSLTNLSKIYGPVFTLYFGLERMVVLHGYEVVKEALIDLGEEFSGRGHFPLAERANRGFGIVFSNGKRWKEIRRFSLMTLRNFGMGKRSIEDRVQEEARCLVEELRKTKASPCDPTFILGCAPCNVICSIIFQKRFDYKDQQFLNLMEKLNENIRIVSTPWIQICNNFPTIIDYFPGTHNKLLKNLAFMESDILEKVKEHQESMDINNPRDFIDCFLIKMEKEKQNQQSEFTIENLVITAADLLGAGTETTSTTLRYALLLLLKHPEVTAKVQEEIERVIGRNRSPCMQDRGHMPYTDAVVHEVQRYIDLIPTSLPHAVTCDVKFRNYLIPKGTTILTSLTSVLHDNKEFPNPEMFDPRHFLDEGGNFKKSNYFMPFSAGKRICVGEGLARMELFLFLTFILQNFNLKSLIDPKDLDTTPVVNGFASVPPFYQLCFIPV

[2] = biological target: Eukaryotic translation initiation factor 4E (Mus musculus, UniProt P63073); test: blockers of eIF4G binding by eIF4E – biochemical, TR-FRET, dose response (AID 855); type: functional;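 note: potency for disrupting eIF4E binding to eIF4GI seen as loss of FRET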
Chain of Eukaryotic translation initiation factor 4E (P63073 whole entry): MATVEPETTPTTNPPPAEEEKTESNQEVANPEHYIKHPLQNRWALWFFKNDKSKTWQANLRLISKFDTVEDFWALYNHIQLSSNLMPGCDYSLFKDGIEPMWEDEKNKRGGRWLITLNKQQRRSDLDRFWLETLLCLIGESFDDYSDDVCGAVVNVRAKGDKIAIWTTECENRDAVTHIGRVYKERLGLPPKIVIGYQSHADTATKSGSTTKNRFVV

Kallikrein-7 = Kallikrein-7 (Homo sapiens, UniProt P49862); test: Fluorescence Intensity-based biochemical primary high throughput dose response assay to identify activators of kallikrein-7 (K7) zymogen.
Chain of Kallikrein-7 (P49862 whole entry): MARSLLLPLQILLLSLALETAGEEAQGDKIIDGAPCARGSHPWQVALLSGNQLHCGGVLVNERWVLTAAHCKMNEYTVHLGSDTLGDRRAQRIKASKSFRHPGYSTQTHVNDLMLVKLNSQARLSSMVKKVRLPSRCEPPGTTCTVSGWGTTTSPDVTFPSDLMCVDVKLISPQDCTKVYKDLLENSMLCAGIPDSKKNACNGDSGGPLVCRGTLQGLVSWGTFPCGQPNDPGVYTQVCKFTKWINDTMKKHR

Cytochrome P450 3A4 [3] = biological target: T3, Cytochrome P450 3A4 (Homo sapiens, UniProt P08684); conditions: Potency
T3 sequence (P08684 whole entry): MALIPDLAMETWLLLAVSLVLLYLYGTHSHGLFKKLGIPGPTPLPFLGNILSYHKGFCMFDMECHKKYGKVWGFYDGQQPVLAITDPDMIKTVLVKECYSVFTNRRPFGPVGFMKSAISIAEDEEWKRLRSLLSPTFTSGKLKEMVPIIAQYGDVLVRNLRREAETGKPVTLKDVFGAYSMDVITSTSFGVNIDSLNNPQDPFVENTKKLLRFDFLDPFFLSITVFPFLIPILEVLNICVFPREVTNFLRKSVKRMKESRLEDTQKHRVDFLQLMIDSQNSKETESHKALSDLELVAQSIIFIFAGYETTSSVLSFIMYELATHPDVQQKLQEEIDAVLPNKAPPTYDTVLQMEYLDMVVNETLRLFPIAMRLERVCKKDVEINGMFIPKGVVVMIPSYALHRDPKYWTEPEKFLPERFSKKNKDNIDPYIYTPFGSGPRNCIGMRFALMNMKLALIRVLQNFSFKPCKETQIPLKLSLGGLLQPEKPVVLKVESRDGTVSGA

[4] = biological target: T4, Histone-lysine N-methyltransferase NSD2 (Homo sapiens, UniProt O96028); type: biochemical
T4 sequence (O96028 whole entry): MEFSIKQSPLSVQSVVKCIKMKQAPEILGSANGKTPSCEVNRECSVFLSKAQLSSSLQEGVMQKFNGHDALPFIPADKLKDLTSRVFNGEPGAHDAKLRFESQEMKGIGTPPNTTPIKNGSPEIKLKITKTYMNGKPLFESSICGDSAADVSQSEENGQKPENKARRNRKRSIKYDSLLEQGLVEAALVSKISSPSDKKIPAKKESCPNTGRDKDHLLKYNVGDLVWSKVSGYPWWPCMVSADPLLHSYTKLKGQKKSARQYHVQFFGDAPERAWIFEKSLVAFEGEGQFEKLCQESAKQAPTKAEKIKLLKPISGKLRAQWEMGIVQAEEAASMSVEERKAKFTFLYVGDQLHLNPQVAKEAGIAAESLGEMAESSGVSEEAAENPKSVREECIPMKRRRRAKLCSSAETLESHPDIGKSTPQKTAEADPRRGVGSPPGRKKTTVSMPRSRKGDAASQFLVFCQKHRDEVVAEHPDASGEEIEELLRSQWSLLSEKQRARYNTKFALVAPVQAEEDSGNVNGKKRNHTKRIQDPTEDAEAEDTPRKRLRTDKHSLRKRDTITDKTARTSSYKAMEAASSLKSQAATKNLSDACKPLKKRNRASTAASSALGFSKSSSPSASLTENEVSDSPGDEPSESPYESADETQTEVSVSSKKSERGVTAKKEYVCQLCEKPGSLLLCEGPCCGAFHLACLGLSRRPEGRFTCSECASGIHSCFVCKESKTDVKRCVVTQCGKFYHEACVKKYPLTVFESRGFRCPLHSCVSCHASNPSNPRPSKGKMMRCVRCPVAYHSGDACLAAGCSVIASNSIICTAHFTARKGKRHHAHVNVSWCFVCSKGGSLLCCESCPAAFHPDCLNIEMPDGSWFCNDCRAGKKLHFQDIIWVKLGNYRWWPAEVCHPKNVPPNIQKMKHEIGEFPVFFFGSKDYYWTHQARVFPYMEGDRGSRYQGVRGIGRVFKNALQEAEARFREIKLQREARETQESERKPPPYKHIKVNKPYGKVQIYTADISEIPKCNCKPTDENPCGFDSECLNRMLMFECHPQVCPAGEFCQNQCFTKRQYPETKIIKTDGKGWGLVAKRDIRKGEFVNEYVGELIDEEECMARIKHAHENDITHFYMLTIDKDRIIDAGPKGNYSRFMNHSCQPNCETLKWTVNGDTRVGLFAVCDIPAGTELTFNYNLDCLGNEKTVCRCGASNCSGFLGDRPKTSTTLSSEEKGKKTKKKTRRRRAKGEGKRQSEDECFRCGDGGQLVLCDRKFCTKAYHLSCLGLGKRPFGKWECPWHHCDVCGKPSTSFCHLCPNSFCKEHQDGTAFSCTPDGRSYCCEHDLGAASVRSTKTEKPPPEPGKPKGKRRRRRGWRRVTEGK

Cytochrome P450 3A4 [5] = biological target: T3, Cytochrome P450 3A4
Cytochrome P450 2C9 [6] = biological target: T5, Cytochrome P450 2C9 (Homo sapiens, UniProt P11712)
T5 sequence (P11712 whole entry): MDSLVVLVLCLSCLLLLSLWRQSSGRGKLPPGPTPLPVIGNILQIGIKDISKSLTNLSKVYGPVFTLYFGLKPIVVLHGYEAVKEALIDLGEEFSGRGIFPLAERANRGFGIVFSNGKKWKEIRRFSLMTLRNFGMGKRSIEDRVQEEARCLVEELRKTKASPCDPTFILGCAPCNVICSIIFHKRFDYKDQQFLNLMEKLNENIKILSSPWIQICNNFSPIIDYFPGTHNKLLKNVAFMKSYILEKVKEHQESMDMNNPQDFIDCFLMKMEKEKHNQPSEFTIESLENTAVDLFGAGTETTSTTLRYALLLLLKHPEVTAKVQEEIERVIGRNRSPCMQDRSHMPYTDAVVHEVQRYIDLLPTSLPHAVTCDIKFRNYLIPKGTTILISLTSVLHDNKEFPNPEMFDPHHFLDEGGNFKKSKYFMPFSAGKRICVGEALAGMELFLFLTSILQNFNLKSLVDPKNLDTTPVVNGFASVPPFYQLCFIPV

[7] = biological target: T1, Short transient receptor potential channel 4; test: block of DAMGO-driven TRPC4 calcium entry – cell-based, HEK293 TRPC4/mu-opioid, Fluo-4 calcium, dose response (AID 434942); type: functional;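 note: potency of inhibitors blocking the TRPC4 calcium response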
Cytochrome P450 3A4 [8] = biological target: T3, Cytochrome P450 3A4; remark: listed apart in the source
[9] = A cytotoxicity screen of small molecule inhibitors of the PhoP region in Salmonella typhi identified in the primary screen. [Related pubchem assays: 1850, 1864, 1985 ]; type: functional
[10] = biological target: T6, Carboxy-terminal domain RNA polymerase II polypeptide A small phosphatase 1 (Homo sapiens, UniProt Q9GZU7); test: CTDSP1 inhibitors, concentration-response, biochemical, absorbance readout, ultra-high-throughput screen actives (AID 540297); type: functional
T6 sequence (Q9GZU7 whole entry): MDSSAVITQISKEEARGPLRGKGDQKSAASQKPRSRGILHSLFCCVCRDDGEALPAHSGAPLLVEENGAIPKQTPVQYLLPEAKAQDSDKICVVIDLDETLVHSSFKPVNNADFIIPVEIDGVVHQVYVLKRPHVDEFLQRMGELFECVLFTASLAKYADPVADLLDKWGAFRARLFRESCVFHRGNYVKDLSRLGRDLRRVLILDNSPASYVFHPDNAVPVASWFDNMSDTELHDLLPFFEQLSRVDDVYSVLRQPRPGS

Cytochrome P450 2C9 [11] = biological target: T5, Cytochrome P450 2C9; remark: listed apart in the source

O=C(CCCc1ccccc1)NCCc1cnc[nH]1
EC50 [1]: 5.31 µM (active)

Cc1cc(C)nc(Nc2n[nH]c(COc3ccc4ccccc4c3)n2)n1
AC50 (Cytochrome P450 2D6): inconclusive | AC50 (Cytochrome P450 1A2): 1.12 µM (inconclusive) | AC50 (Cytochrome P450 2C19; read-out: AC50): 17.8 µM (inconclusive)

CCc1nnc(NC(=O)Cn2nc(-c3ccccc3OC)ccc2=O)s1
IC50 [2]: > 64 µM (inactive)

O=C(CSc1ncn(-c2ccccc2)n1)N1CCc2ccccc21
IC50 [2]: > 64 µM (inactive)

COC(=O)CNC(=O)COC(=O)c1cc(Cl)cc(Cl)c1N
EC50 (Kallikrein-7): > 69.5 µM (inactive)

COc1ccc(/C=C/C(O)=C2/C(=O)NC3(C)CC2c2ccccc2O3)c(OC)c1OC (configuration not stated)
EC50 (Kallikrein-7): > 69.6 µM (inactive)

CC(=O)Oc1c2c(c3c(c1CC=C(C)C)O[C@@]14C(=CC5CC1C(C)(C)OC4(C/C=C(\C)C(=O)O)C5=O)C3=O)OC(C)(CCC=C(C)C)C=C2 (some centres not stated)
AC50 (Cytochrome P450 3A4 [3]): 39.8 µM (inconclusive)

COc1cc(C(=O)NNC(=O)C2CC=CCC2C(=O)O)cc(OC)c1OC (configuration not stated)
IC50 [2]: > 64 µM (inactive)

Cc1cc2ccccn2c1C(=S)NC(=O)c1ccccc1
AC50 [4]: > 20 µM (inactive)

O=C(Nc1ccc2c(c1)OCCO2)C1CCN(C(=O)c2ccccc2)CC1
AC50 (Cytochrome P450 2D6): inconclusive

CCN(CC)CCn1c(-c2ccccc2)nc2c(NCCOC)nc(C)nc21
AC50 (Cytochrome P450 3A4 [3]): 12.6 µM (inconclusive)

CS(=O)(=O)N1CCC2(CCN(C(c3ccccc3)c3ccccc3)CC2)CC1
AC50 (Cytochrome P450 3A4 [5]): inconclusive

COc1ccccc1CN1CC2(CCN(S(=O)(=O)c3ccccc3)CC2)C1
AC50 (Cytochrome P450 2D6): inconclusive | AC50 (Cytochrome P450 2C9 [6]): inconclusive | AC50 (Cytochrome P450 2C19): inconclusive

COCCNc1ncncc1-c1c(C)noc1C
AC50 (Cytochrome P450 2C9 [6]): inconclusive

COc1ccc(Cl)cc1NC(=O)CNCC(c1ccccc1)N(C)C (configuration not stated)
EC50 [1]: 1.06 µM (active) | EC50 [7]: 0.421 µM (active)

CSc1ccc(Cl)c(C(=O)NCCOc2cc(C)ccc2C(C)C)c1
AC50 (Cytochrome P450 2C9 [6]): inconclusive | AC50 (Cytochrome P450 3A4 [8]): 1 µM (inconclusive)

CCCCOc1ccc(OCCNC(=O)c2ccco2)cc1
EC50 [9]: > 50 µM (active)

O=C(Cn1cnc2ccccc21)Nc1ccc(SC(F)F)cc1
EC50 [9]: > 50 µM (active)

O=C(NC1CCC(O)CC1)c1cc(-c2ccco2)nc2ccccc12 (configuration not stated)
EC50 (Kallikrein-7): > 69.5 µM (inactive) | IC50 [10]: 5.9 µM (active) | IC50 [2]: 50 µM (inactive)

O=C(C[n+]1ccccc1)c1ccc(-c2ccccc2)cc1
EC50 [9]: > 50 µM (active)

CC(=O)OC1CC2C(C)(C)C(O)C=C[C@@]2(C)C2CC[C@]3(C)C(=CC(=O)OC3c3ccoc3)[C@]12C (some centres not stated)
AC50 (Cytochrome P450 3A4 [3]): 15.8 µM (inconclusive)

CCNc1cc(O)ccc1C
AC50 (Cytochrome P450 3A4 [3]): 25.1 µM (inconclusive)

Cc1cc2ccccc2c(=O)n1CC(=O)NCCC1=CCCCC1
EC50 [9]: > 50 µM (active)

COCC(=O)Oc1c(Sc2ccccc2[N+](=O)[O-])c(C)nn1C(C)(C)C
IC50 [2]: 50 µM (inactive)

COc1ccc(-c2nc(NC(=O)c3ccccc3)sc2-c2ccc([N+](=O)[O-])cc2)cc1
AC50 (Cytochrome P450 2D6): inconclusive | AC50 (Cytochrome P450 2C9 [11]): 2.82 µM (inconclusive) | AC50 (Cytochrome P450 2C19; read-out: AC50): 1.26 µM (inconclusive)

CC(COc1ccccc1)N1CCC(CO)(CCc2ccccc2)CC1 (configuration not stated)
EC50 [1]: 0.267 µM (active)

Cc1noc(C)c1-c1cc(N2CCN(C)CC2)ncn1
AC50 (Cytochrome P450 2C9 [6]): inconclusive

O=C(O)CSSCC(=O)O
AC50 (Cytochrome P450 2D6): inconclusive | AC50 (Cytochrome P450 2C19): inconclusive

Nc1nc2ncccn2c1-c1ccc(F)c(F)c1
EC50 (Kallikrein-7): 9.39 µM (active)

C[C@@H](NCc1cc(Br)cc2[nH]c(=O)c(=O)[nH]c12)P(=O)(O)O
AC50 (Cytochrome P450 2C9 [6]): inconclusive

C=CCN=C=S [ALLYL ISOTHIOCYANATE]
AC50 (Cytochrome P450 3A4 [3]): 39.8 µM (inconclusive)
